From patent US20090054529A1, “Flow Path Conditioner System” (priority 2005, published 2009)

Tested on: E coli (ATCC 25922, MRI EC 13) and Pseudomonas aeruginosa (ATCC 9027, MRI Ps 10)
Assay: Example 4 summary of the 62 test samples (both cultures pooled)
Assay type: cell-based
Conditions: aqueous mixtures of up to 20% v/v; Example 4 text summary
Protocol: Freshly cultivated cultures of E coli (ATCC 25922, MRI EC 13) and Pseudomonas aeruginosa (ATCC 9027, MRI Ps 10) were suspended in MHB (Mueller-Hinton Broth) nutrient broth at 10^8 cfu/ml (colony-forming units per milliliter), diluted about 1:10 in peptone nutrient broth to about 10^7 cfu/ml. About 1 ml of each of the diluted cultures was added to one each of 9 ml of the corresponding test solutions described below for 5.0 minutes and then diluted in two steps of 1:10 per step. 100 microliters of such diluted culture was then plated onto a conventional nutrient agar plate. Nutrient agar plates were incubated by conventional methods and the number of colonies present on each plate were counted. Positive controls combined freshly cultivated cultures above described with peptone broth were included in each test group and numbers of colonies in control plates were used as a reference.
Now referring to Table 4, the results of combining each test solution as described above with each of the E coli (ATCC 25922, MRI EC 13) and Pseudomonas aeruginosa (ATCC 9027, MRI Ps 10) cultures are summarized using the following quantitative nomenclature: […]

Structure (SMILES)	effectiveness in reducing microorganisms
CCO [ethanol]	do not appear to be effective
CO [methanol]	do not appear to be effective
